From ChEMBL document CHEMBL3832086, “DailyMed|setid=1c5502c7-7731-4d3e-b4fe-7fd44dd5908b | UROXATRAL - alfuzosin hydrochloride tablet, extended release|Physicians Total Care, Inc”

Assays:
[1] = Evaluation of absolute bioavailability of Alfuzosin hydrochloride following oral administration of 10 mg Alfuzosin hydrochloride tablets under fed conditions.; assay type: ADME, organism-based; conditions: human, in vivo, at 10 mg, dietary status Fed, dosed compound id 46, dosed compound name ALFUZOSIN HYDROCHLORIDE, regimen Single dose, tissue Plasma
[2] = Evaluation of pharmacokinetic parameters for Alfuzosin hydrochloride following multiple oral or intravenous administration of Alfuzosin hydrochloride.; assay type: ADME, organism-based; parameters: dose 10 mg, route oral; conditions: human, in vivo, dosed compound id 46, dosed compound name ALFUZOSIN HYDROCHLORIDE, regimen Multiple dose, tissue Plasma

- bioavailability [1]: 49%
- Cmax ([2]; po, 10 mg, dietary status Fed): 13.6 ng/mL
- AUC ([2]; po, 10 mg, dietary status Fed, read-out: AUC(0-24)): 194 ng·h/mL
- Tmax ([2]; dietary status Fed, dose 10 mg, route oral): 8 h
- half-life ([2]; dose 10 mg, route oral): 10 h
- Vd ([2]; gender male, route iv): 3.2 L/kg
Structure (SMILES): COc1cc2nc(N(C)CCCNC(=O)C3CCCO3)nc(N)c2cc1OC.Cl (stereo unspecified) [ALFUZOSIN HYDROCHLORIDE]
